The nature of data set [1]: Solubility in the extracellular solution. Particulars: reproducible data above 20 μM complicated. It is filed as physicochemical.
Data set [2] deals with T1, TRPM8-Y745H mutant channel (Mus musculus, UniProt Q8R4D5, Y745H).
T1 construct: The full length cDNA encoding mouse TRPM8 (NM_134252) in pcDNA5; expressed in transfected cells; host or cells: HEK293
In words: Calcium imaging (Fura-2) of HEK293 cells expressing TRPM8-Y745H. Format: cell-based. How it is done:
(§1) The full length cDNA encoding mouse TRPM8 (NM_134252) in pcDNA5 (Invitrogen) was kindly provided by Dr. Ardem Patapoutian, (Scripps Research Institute, La Jolla, CA). The TRPM8-Y745H mutant was obtained by site-directed mutagenesis with the following primers: (for) 5'-[…]-3'; (rev) 5'-[…]-3', and Pfu Turbo Taq DNA Polymerase (Roche).
(§2) HEK293 cells were cultured in DMEM containing 10% of foetal bovine serum and antibiotics, and plated in 2 cm^2 wells at 400.000-500.000 cells/well. 20-24 h after plating, the cells were co-transfected with eGFP (0.3 μg/well) and TRPM8-wt or TRPM8-Y745H (2 μg/well) by incubating them with a solution containing the plasmid DNA and Lipofectamine 2000 (Invitrogen) for 5 hours. Subsequently, the cells were trypsinized and replated on poly-L-lysine-coated round coverslips (6 mm diameter). 20-48 h post-transfection, GFP(+) cells were selected for calcium imaging or electrophysiology experiments.
(§3) Prior to experiment, HEK293 cells transfected with the TRPM8-wt/Y745H constructs were incubated with 5 μM Fura-2AM dissolved in the bath solution and 0.02% Pluronic (both from Invitrogen) for 40 min at 37°C in darkness. Fluorescence measurements were made with a Leica DM IRE2 inverted microscope fitted with a CCD camera (Imago QE Sensicam, TillPhotonics, Graefelfing, Germany). Fura-2 was excited at 340 nm and 380 nm with a Polychrome IV monochromator (Till Photonics) and the emitted fluorescence was filtered with a 510 nm longpass filter.
(§4) Coverslip pieces with cultured cells were placed in a microchamber and continuously perfused with solutions warmed at 33°C. The temperature was adjusted with a water-cooled Peltier device placed at the inlet of the chamber, and controlled by a feedback device. Cold-sensitivity was investigated with a temperature decrease to 18-20°C (Figure 1B).

Data set [3] addresses T2, TRPM8-wt channel (Mus musculus, UniProt Q8R4D5).
T2 construct: The full length cDNA encoding mouse TRPM8 (NM_134252) in pcDNA5; expressed in transfected cells; host or cells: HEK293
In words: Calcium imaging (Fura-2) of HEK293 cells expressing TRPM8-wt. Format: cell-based. How it is done:
as §1, §2, §3, §4

For data set [4], the target named is T2, TRPM8-wt channel. More on the design: method as in PMID 14757700. The conditions noted are these: 100 μM menthol-activated TRPM8-wt, FLIPR; cited from earlier work.
For data set [5], the target named is T2, TRPM8-wt channel. In words: Whole-cell patch clamp of HEK293 cells expressing TRPM8-wt. It is filed as cell-based. The conditions noted are these: for Inhibition of voltage-activated TRPM8-wt current: 33°C, +120 mV. How it is done: as §1, §2
(§5) Whole-cell voltage-clamp recordings of TRPM8-wt/Y745H transfected HEK293 cells were performed simultaneously with temperature recordings. Current development was monitored at a holding potential of -60 mV. For information on voltage-dependent effects, 1.25-s-duration voltage ramps from -100 to +150 mV were delivered at desired time points. Standard patch-pipettes (3-5 MΩ) were made of borosilicate glass capillaries (Harvard Apparatus Ltd, UK), and contained (in mM): 150 NaCl, 3 MgCl2, 5 EGTA, 10 HEPES, (278 mOsm/kg; pH 7.2, adjusted with NaOH). During electrophysiological recordings, a divalent cation -free bath solution was used to minimize desensitization, which contained: 150 NaCl, 10 EDTA, 10 HEPES and 10 glucose (pH 7.4 with NaOH). The divalent-free solution was used in the preparation of all chemical modulator containing solutions. Current signals were recorded with an Axopatch 200B patch-clamp amplifier (Molecular Devices, Sunnyvale, CA, U.S.A.) applying series resistance compensation (60-90%). Stimulus delivery and data acquisition were performed using pClamp 9 software (Molecular Devices). Data were sampled at 5 kHz (ramps) and 1 kHz (timecourse) and filtered online at 2 kHz.
as §4
Experiments were always performed in parallel with cells expressing TRPM8-wt and TRPM8-Y745H to minimize any day-to-day variability in experimental conditions. […]

In data set [6] the test system is TRPM8-wt channel. Particulars: electrophysiology (EP), +80 mV, cited from earlier work.
Data set [7] addresses T1, TRPM8-Y745H mutant channel. In words: Whole-cell patch clamp of HEK293 cells expressing TRPM8-Y745H. It is filed as cell-based. Particulars: for Inhibition of voltage-activated TRPM8-Y745H current: +120 mV. How it is done: as §1, §2, §5, §4
Experiments were always performed in parallel with cells expressing TRPM8-wt and TRPM8-Y745H to minimize any day-to-day variability in experimental conditions. To estimate the shifts in the voltage-dependence of activation of TRPM8-wt/Y745H in HEK293 cells, current-voltage (I-V) relationships from voltage ramps were fitted with an equation that combines a linear conductance multiplied by a Boltzmann activation term: [drawing 1]
(The patch-clamp technique gives a direct electrical read-out from membranes.)

The subject of data set [8] is TRPM8-wt channel. Particulars: calcium imaging (CI), cited from earlier work.
Setting [9] is: 3 μM antagonist, compared with TRPM8-wt.
Where [10] appears, read: cold-activated TRPM8-wt, read-out: IC50 cold (converted).
[11] abbreviates: 100 μM menthol-activated TRPM8-wt, modified from ref 25, read-out: IC50 menthol.
The mark [12] stands for this setting: cold-activated TRPM8-wt, read-out: IC50 cold.
Setting [13] is: 100 μM, at 33°C or during cooling.

Like-named read-outs stand apart in the source and are kept apart here.

T2 sequence (Q8R4D5 whole entry): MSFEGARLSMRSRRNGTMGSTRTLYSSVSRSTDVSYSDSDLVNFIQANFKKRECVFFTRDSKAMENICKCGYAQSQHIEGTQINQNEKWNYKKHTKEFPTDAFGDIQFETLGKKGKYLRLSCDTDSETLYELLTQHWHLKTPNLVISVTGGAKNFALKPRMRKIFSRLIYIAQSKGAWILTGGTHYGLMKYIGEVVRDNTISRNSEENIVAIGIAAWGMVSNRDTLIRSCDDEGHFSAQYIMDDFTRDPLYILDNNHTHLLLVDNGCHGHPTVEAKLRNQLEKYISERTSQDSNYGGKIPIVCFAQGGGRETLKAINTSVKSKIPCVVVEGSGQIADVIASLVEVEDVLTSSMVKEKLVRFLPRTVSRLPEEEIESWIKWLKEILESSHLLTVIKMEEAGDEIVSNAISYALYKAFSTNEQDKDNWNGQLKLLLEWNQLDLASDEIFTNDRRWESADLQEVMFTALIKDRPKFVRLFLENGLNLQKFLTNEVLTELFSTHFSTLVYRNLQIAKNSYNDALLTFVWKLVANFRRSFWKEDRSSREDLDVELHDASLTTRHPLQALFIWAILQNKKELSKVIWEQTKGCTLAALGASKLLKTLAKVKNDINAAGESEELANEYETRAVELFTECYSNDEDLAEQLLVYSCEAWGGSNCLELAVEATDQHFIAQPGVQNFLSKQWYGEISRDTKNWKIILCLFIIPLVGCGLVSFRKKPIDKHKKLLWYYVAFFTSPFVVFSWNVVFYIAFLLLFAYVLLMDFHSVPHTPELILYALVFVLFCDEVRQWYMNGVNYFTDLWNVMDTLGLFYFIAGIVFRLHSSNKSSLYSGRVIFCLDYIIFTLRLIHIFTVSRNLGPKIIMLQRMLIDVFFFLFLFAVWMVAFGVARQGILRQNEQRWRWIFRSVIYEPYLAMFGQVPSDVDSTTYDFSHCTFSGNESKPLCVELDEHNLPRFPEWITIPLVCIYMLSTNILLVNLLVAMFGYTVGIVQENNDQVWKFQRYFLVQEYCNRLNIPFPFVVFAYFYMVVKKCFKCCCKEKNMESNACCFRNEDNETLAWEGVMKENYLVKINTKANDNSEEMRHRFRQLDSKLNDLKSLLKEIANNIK
T1 sequence (Q8R4D5 whole entry Y745H): as the sequence (Q8R4D5 whole entry) above, with Y745H counted along it

Regarding `Clc1ccccc1C(c1ccccc1)(c1ccccc1)n1ccnc1` [Clotrimazole, 1-[(2-chlorophenyl)diphenylmethyl]-1H-imidazole], the “Solubility in the extracellular solution” value in data set [1] is listed as “limited solubility”.
With `c1c[nH]cn1` [Imidazole, 1,3-diazacyclopenta-2,4-diene], the “Inhibition of cooling-activated TRPM8-Y745H” value in data set [2] (20 μM, 100 μM and 1 mM) was “ineffective”. Besides, the “Inhibition of cooling-activated TRPM8 wild-type” value on TRPM8-wt channel [3] (20 μM, 100 μM and 1 mM) is reported as “ineffective”.
Usually IC50 stands for the concentration that gives 50% inhibition. Turning to `Oc1cc2c(cc1O)CN(C(=S)NCCc1ccc(Cl)cc1)CCC2` [Capsazepine, N-[2-(4-Chlorophenyl)ethyl]-1,3,4,5-tetrahydro-7,8-dihydroxy-2H-2-benzazepine-2-carbothioamide], the IC50 was 18000 ± 1000 nM on TRPM8-wt channel [4] and 12000 ± 2000 nM at TRPM8-wt channel [3] (cold-activated TRPM8-wt, calcium imaging (CI), this work). For the same compound, in data set [2] (calcium imaging, cooling-activated), the “Inhibitory potency at cooling-activated TRPM8-Y745H compared with wild-type (dose-inhibition curves)” value is “lost part of their inhibitory potential”.
In the case of `COc1ccc(CCCOC(Cn2ccnc2)c2ccc(OC)cc2)cc1` (centres unmarked) [SKF96365], the “Block of cold-evoked [Ca2+]i response of TRPM8-Y745H” value was “nearly complete loss of effect” in data set [2] (setting [9]) and “unable to increase block” in data set [2] (20 μM (super saturating concentration), compared with 3 μM). Further, the “Block of cold-evoked TRPM8-wt current” value on TRPM8-wt channel [5] (3 μM) is “potent antagonism”. Further, the “Inhibition of voltage-activated TRPM8-wt current” value on TRPM8-wt channel [5] (3 μM) was “strong inhibition”. Also, the “Apparent gating charge during antagonist application” value worked out at 0.73 ± 0.04 on TRPM8-wt channel [5] (TRPM8-wt, cooling, 3 μM SKF96365) and 0.63 ± 0.04 in data set [7] (TRPM8-Y745H, cooling, 3 μM SKF96365). For the same compound, the IC50 in the data set on TRPM8-wt channel [6] (setting [10]) was 800 nM; in the data set on TRPM8-wt channel [8] (setting [11]), 3000 ± 1000 nM; in the data set with TRPM8-wt channel [8] (setting [12]), 1000 ± 200 nM. Further, the “Block of cold-evoked TRPM8-Y745H current” value is given as “completely failed to block” in data set [7] (3 μM) and “lacked any inhibitory effects” in data set [7] (20 μM). Besides, in data set [7] (33°C, 3 μM), the “Inhibition of voltage-activated TRPM8-Y745H current” value was “fully abrogated the inhibition”.
Consider `CC(C)(C)c1ccc(NC(=O)N2CCN(c3ncccc3Cl)CC2)cc1` [BCTC, 4-[3-chloro-pyridin-2-yl]-piperazine-1-carboxylic acid [4-tert-butyl-phenyl]-amide], for which, in data set [2] (setting [9]), the “Block of cold-evoked [Ca2+]i response of TRPM8-Y745H” value was “maintained its full and reversible blocking potential”. Besides, the “Inhibition of voltage-activated TRPM8-wt current” value on TRPM8-wt channel [5] (3 μM) is reported as “strong inhibition”. The IC50 in the data set on TRPM8-wt channel [6] (100 μM menthol-activated TRPM8-wt, modified from ref 25, read-out: IC50 menthol (converted)) is 340 nM; in the data set on TRPM8-wt channel [6] (setting [10]), 540 nM; in the data set with TRPM8-wt channel [8] (setting [11]) it was 470 ± 10 nM; in the data set on TRPM8-wt channel [8] (setting [12]) it was 680 ± 60 nM. The “Block of cooling-activated TRPM8-Y745H current” value in data set [7] (3 μM, +80 mV) is 98%. In addition, the “Inhibition of voltage-activated TRPM8-Y745H current” value in data set [7] (33°C, 3 μM) was “without affecting the block”.
For the compound `CC1CCC(C(C)C)C(O)C1` [menthol, L-menthol], the “Agonist effect on intracellular calcium, TRPM8-Y745H” value in data set [2] (setting [13]) is “lack of menthol responses”. For the same compound, the “Agonist effect on intracellular calcium, TRPM8-wt” value at TRPM8-wt channel [3] (setting [13]) is on record as “increase the intracellular calcium levels”. The “Agonist effect on whole-cell current, TRPM8-Y745H” value in data set [7] (100 μM, 33°C, all potentials) was “completely insensitive to menthol”.

Source of the values: paper PMC2778643, “Differential role of the menthol-binding residue Y745 in the antagonism of thermally gated TRPM8 channels” (Molecular Pain, 2009).
